SMILES strings stand for the structures. Read-outs that look alike come from different tables or passages of the source. Where only a bound is given, the exact number is not on record here.

Data set [1] in a line: Mouse in vivo oral and iv PK. As to conditions: male, CD1 mice, whole blood; for clearance: iv at 1 mg/kg; for AUC(0-t): read-out: po AUClast. How it is done:
For sanglifehrin analogues, whole blood is analysed. Compounds are formulated in 5% ethanol/5% cremophor EL/90% saline for both p.o. and i.v. administration. Groups of 3 male CD1 mice are dosed with either 1 mg/kg i.v. or 5 or 10 mg/kg p.o. Blood samples (40 μL) are taken via saphenous vein, pre-dose and at 0.25, 0.5, 2, 8, and 24 hours, and diluted with an equal amount of dH20 and put on dry ice immediately. Samples are stored at −70° C. until analysis. The concentration of the compound of the invention or parent compound in the sample is determined via LCMS as follows: 20 μL of blood:H2O (1:1, v/v)/PK sample is added with 20 μL Internal standard (hydroxyl macrocycle, 6) at 100 ng/mL, 20 μL working solution/MeOH and 150 μL of ACN, vortexed for 1 minute at 1500 rpm, and centrifuged at 12000 rpm for 5 min. The supernatant is then injected into LC-MS/MS. The time-course of blood concentrations is plotted and used to derive area under the whole blood concentration-time curve (AUC—which is directly proportional to the total amount of unchanged drug that reaches the systemic circulation). These values are used to generate PK parameters where possible.
To assess the pharmacokinetics of the compounds in an in vivo setting, compounds were dosed po at 10 or 5 mg/kg and iv at 1 mg/kg to groups of CD1 mice. Pharmacokinetic analysis was carried out as described in the general methods. The PK parameters are shown below.

Data set [2] concerns HIV. Put plainly: microbe, parasite or virus in culture. The format is cell-based. As to conditions: Human immunodeficiency virus 1, HeLa, read-out: HeLa cells EC50. How it is done:
Briefly, human PBMCs were purified from fresh blood by banding on Ficoll-Hypaque (30 min, 800 g, 25° C.). Primary human CD4+ T cells were purified from PBMCs by positive selection with anti-CD4 Dynabeads and subsequent release using Detachabead. […] Three days after stimulation, cells were split 1:2 in medium containing IL-2 (200 units/ml final concentration). Cultures were then split 1:2 every 2 days in IL-2 medium and infected with HIV at 7 days after stimulation. […] To obtain monocyte-derived macrophages, cells were allowed to adhere to plastic and cultured for 6 days to allow differentiation.
CD4+ HeLa cells, Jurkat cells, activated CD4+ peripheral blood T-lymphocytes and macrophages (500,000 cells/100 μL) were incubated with pNL4.3-GFP (X4 virus) or pNL4.3-BaL-GFP (R5 virus) (100 ng of p24) in the presence of increasing concentrations of test article, Forty-eight hours later, infection was scored by analyzing the percentage of GFP-positive cells by FACS and EC50 calculated.
Compounds were analysed in an HIV antiviral assay using HeLa cells as described in the General Methods.

In data set [3] the target is OATP1B1 (Homo sapiens (Human), UniProt Q9Y6L6). Nature of the data set: Uptake transporter inhibition, OATP1B1. The format is cell-based. Particulars: CHO cells, probe substrate E3S. How it is done:
(§1) To assess the inhibition of the […] and OAT1B3 uptake transporters, an in vitro uptake transporter assay from Solvo Biotechnology Inc. was used. […] Parental cell line CHO-K was used as negative control. […] Before experiments the medium was aspirated by vacuum suction, cells were washed with 2×100 μl of Krebs-Henseleit buffer pH 7.3 (prepared from Sigma chemicals, Sigma-Aldrich, St Louis, Mo.). Uptake experiments were carried out at 37° C. in 50 μl of Krebs-Henseleit buffer (pH 7.3) containing the probe substrate and the TA or solvent, respectively. […] The probe substrate for the OATP1B1 assay was E3S (0.1 μM) and for the OATP1B3 assay was Fluo-3 (10 μM). The translocated amount of probe substrate was determined for each well in cpm. Relative activities were calculated from the equation: Activity%=(A−B)/(C−D)×100

For data set [4], the target named is Bile Salt Export Pump (BSEP) (Homo sapiens (Human), UniProt O95342). Put plainly: Vesicular efflux transporter inhibition, BSEP. In kind it is biochemical. Particulars: membrane vesicles, probe taurocholate. Here is the method: Relative activities were calculated with the following equation: […]
Data set [5] has as its target MRP3 (Homo sapiens (Human), UniProt O15438). Nature of the data set: Vesicular efflux transporter inhibition, MRP3. Here is the method:
(§2) To assess the inhibition of the MRP2, MRP3 and BSEP efflux transporters, an in vitro vesicular transporter assay from Solvo Biotechnology Inc. was used. […] In the case of MRP2 and MRP3 transporters reactions were carried out in the presence of 2 mM glutathione. Reaction mixtures were preincubated for ten minutes at 37° C. Reactions were started by the addition of 25 μl of 12 mM MgATP (4 mM final concentration in assay) or assay buffer for background controls. Reactions were stopped by adding 200 μl of ice-cold washing buffer and immediately followed by filtration on glass fiber filters in a 96-well format (filter plate). Scintillation buffer was added to the washed and dried filter plate and scintillation was counted subsequently. Probe substrates were taurocholate (2 μM) for BSEP vesicles and E217βG (1 μM) for MRP2 and MRP3 vesicles. For all wells the translocated amount of the probe substrate was determined in cpm units. Relative activities were calculated with the following equation:
(§3) Activity %=(A−B)/(C−D)×100 Where A=translocated amount of substrate in the presence of TA and ATP, B=translocated amount of substrate in the presence of TA, C=translocated amount of substrate in the presence of solvent and ATP and D=translocated amount of substrate in the presence of solvent. […]

The nature of data set [6]: Anti-metabolic effect (MTS) in replicon cells. As to conditions: human. Here is the method: (§4) Dilution series are prepared; each dilution series is performed in at least duplicate.
(§5) The selectivity index (SI), indicative of the therapeutic window of the compound, is calculated as CC50/EC50.
(§6) Compounds were analysed in the genotype 1b replicon assay using Huh5.2 cells as described in the General Methods.

For data set [7], the system named is HCV genotype 1b I389luc-ubi-neo/NS3-3'/5.1 replicon in Huh5.2 cells. Nature of the data set: HCV genotype 1b replicon assay, antiviral effect (luciferase). The format is cell-based, Hepatitis C virus. Particulars: for EC50: Hepatitis C virus, Huh-5-2, 72 h; for Selectivity index (CC50/EC50): Huh5.2 replicon assay. How it is done:
as §4
For the evaluation of antiviral effects, assay medium is aspirated and the cell monolayers are washed with PBS. The wash buffer is aspirated, 25 μL of Glo Lysis Buffer (Cat. No. E2661, Promega) is added after which lysis is allowed to proceed for 5 min at room temperature. Subsequently, 50 μL of Luciferase Assay System (Cat. No. E1501, Promega) is added and the luciferase luminescence signal is quantified immediately (1000 ms integration time/well, Safire^2, Tecan). Relative luminescence units are converted to percentage of untreated controls.
as §5, §6
On the technique in general: Replicon systems follow genome replication, usually without infectious particles.

Data set [8] has as its target OATP1B3 (Homo sapiens (Human), UniProt Q9NPD5). Nature of the data set: Uptake transporter inhibition, OATP1B3. The format is cell-based. Particulars: CHO cells, probe substrate Fluo-3. How it is done:
as §1

The target in data set [9] is CypA (Homo sapiens (Human), UniProt P62937). Put plainly: biochemical. Here is the method:
An alternative methodology for analysing interaction with cyclophilins is described as follows: The PPlase activity of recombinant CypA or D, produced by thrombin cleavage of GST-CypA or D, was determined by following the rate of hydrolysis of N-succinyl-Ala-Ala-Pro-Phe-p-nitroanilide by chymotrypsin. Chymotrypsin only hydrolyzes the trans form of the peptide, and hydrolysis of the cis form, the concentration of which is maximized by using a stock dissolved in trifluoroethanol containing 470 mM LiCl, is limited by the rate of cis-trans isomerization. CypA or D was equilibrated for 1 h at 5° C. with selected test article using a drug concentration range from 0.1 to 20 nM. The reaction was started by addition of the peptide, and the change in absorbance was monitored spectrophotometrically at 10 data points per second. The blank rates of hydrolysis (in the absence of CypA or D) were subtracted from the rates in the presence of CypA or D. The initial rates of the enzymatic reaction were analyzed by first-order regression analysis of the time course of the change in absorbance.
To assess the direct inhibition of CypA Peptidyl Prolyl cis-trans Isomerase (PPlase) activity, a method was used as described in the general methods.

Data set [10] deals with MRP2 (Homo sapiens (Human), UniProt Q92887). Nature of the data set: Vesicular efflux transporter inhibition, MRP2. Here is the method:
as §2, §3

Data set [11] concerns the target P-glycoprotein (Pgp/MDR1) (Homo sapiens (Human), UniProt P08183). Put plainly: Inhibition of Pgp transporter using MDR1-MDCK cells. In kind it is cell-based. Particulars: loperamide substrate.
Description: To assess the inhibition of the P-glycoprotein (Pgp/MDR1) transporter, an in vitro ATPase assay from Cyprotex was used. MDR1—MDCK cells obtained from the NIH (Rockville, Md., USA) were used. Following culture, the monolayers were prepared by rinsing both basolateral and apical surfaces twice with buffer at pH 7.4 and 37° C. […] For the apical to basolateral study (A-B), buffer at pH 7.4 was removed from the apical compartment and replaced with loperamide dosing solutions before being placed in the ‘companion’ plates. The solutions were prepared by diluting loperamide in DMSO with buffer to give a final loperamide concentration of 5 μM (final DMSO concentration adjusted to 1%). The fluorescent integrity marker Lucifer yellow was also included in the dosing solution. The experiment was performed in the presence and absence of the test compound (applied to both the apical and basolateral compartments). For basolateral to apical (B-A) study, the P-glycoprotein substrate, loperamide (final concentration=5 μM) was placed in the basolateral compartment. The experiment was performed in the presence and absence of the test compound (applied to the apical and basolateral compartments). […] The test compound was assessed at 0.1, 0.3, 1, 3, 10, 30 and 50 μM. […] After analysis, an IC50 was calculated (i.e., inhibitor concentration (test drug) achieving half maximal inhibition effect).
In data set [12] the test system is HBV. Particulars: Ptak et al. 2008; read-out: IC50 against HBV; cited from earlier work.
Data set [13] has as its system Huh5.2 cells. Nature of the data set: Anti-metabolic effect (MTS) in replicon cells. As to conditions: Huh5.2 cells, MTS, 72 hours. Here is the method: as §4, §5, §6

Chain of P-glycoprotein (Pgp/MDR1) (P08183 whole entry): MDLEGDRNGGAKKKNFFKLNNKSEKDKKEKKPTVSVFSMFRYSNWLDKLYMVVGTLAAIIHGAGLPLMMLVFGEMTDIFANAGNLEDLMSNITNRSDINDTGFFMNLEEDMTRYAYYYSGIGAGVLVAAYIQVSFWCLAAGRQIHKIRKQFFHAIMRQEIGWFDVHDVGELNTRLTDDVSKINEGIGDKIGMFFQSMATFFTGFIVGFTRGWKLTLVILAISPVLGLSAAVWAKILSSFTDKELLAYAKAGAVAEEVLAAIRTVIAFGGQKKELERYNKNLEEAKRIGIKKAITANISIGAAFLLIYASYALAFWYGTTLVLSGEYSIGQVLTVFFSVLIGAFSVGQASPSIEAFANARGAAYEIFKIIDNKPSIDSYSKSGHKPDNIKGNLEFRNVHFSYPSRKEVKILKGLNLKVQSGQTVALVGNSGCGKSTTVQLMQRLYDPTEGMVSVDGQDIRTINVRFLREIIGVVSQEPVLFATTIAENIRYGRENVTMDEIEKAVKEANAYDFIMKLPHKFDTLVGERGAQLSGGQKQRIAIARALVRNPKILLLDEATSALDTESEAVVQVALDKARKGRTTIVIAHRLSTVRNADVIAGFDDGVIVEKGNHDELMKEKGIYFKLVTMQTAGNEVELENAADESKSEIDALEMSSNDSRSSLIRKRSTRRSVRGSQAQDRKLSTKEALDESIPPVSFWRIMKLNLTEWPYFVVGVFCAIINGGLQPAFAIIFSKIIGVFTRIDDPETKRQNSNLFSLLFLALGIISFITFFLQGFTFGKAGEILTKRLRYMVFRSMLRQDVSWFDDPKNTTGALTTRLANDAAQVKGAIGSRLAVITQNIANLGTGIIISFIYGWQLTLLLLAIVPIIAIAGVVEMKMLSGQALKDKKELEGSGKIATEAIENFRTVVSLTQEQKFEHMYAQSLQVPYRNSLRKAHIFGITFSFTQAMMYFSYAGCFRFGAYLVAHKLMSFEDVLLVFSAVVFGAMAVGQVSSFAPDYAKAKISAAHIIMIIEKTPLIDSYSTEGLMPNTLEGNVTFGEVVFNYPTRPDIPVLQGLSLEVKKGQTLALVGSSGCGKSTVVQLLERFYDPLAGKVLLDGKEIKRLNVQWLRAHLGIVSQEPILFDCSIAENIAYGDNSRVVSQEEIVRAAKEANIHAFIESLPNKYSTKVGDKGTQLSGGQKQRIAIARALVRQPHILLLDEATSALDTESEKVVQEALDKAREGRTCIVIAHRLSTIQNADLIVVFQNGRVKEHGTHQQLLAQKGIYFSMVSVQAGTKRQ
Chain of OATP1B3 (Q9NPD5 whole entry): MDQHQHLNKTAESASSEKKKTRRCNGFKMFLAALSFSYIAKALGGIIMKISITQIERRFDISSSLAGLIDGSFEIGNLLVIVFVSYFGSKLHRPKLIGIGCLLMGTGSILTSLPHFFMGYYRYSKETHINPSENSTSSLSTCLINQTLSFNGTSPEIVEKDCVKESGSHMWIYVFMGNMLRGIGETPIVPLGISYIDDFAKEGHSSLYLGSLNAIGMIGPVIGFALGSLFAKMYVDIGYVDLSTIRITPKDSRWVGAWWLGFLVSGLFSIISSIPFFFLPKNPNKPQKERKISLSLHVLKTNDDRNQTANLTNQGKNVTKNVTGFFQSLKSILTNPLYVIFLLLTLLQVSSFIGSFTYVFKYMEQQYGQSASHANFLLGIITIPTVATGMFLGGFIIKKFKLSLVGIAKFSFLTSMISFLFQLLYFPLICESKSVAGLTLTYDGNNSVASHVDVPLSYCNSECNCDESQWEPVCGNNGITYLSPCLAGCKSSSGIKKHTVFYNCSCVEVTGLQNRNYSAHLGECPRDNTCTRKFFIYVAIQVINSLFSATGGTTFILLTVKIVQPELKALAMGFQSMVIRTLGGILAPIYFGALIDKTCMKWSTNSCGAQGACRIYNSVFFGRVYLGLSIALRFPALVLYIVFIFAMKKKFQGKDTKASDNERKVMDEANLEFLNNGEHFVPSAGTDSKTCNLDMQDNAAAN
Chain of MRP2 (Q92887 whole entry): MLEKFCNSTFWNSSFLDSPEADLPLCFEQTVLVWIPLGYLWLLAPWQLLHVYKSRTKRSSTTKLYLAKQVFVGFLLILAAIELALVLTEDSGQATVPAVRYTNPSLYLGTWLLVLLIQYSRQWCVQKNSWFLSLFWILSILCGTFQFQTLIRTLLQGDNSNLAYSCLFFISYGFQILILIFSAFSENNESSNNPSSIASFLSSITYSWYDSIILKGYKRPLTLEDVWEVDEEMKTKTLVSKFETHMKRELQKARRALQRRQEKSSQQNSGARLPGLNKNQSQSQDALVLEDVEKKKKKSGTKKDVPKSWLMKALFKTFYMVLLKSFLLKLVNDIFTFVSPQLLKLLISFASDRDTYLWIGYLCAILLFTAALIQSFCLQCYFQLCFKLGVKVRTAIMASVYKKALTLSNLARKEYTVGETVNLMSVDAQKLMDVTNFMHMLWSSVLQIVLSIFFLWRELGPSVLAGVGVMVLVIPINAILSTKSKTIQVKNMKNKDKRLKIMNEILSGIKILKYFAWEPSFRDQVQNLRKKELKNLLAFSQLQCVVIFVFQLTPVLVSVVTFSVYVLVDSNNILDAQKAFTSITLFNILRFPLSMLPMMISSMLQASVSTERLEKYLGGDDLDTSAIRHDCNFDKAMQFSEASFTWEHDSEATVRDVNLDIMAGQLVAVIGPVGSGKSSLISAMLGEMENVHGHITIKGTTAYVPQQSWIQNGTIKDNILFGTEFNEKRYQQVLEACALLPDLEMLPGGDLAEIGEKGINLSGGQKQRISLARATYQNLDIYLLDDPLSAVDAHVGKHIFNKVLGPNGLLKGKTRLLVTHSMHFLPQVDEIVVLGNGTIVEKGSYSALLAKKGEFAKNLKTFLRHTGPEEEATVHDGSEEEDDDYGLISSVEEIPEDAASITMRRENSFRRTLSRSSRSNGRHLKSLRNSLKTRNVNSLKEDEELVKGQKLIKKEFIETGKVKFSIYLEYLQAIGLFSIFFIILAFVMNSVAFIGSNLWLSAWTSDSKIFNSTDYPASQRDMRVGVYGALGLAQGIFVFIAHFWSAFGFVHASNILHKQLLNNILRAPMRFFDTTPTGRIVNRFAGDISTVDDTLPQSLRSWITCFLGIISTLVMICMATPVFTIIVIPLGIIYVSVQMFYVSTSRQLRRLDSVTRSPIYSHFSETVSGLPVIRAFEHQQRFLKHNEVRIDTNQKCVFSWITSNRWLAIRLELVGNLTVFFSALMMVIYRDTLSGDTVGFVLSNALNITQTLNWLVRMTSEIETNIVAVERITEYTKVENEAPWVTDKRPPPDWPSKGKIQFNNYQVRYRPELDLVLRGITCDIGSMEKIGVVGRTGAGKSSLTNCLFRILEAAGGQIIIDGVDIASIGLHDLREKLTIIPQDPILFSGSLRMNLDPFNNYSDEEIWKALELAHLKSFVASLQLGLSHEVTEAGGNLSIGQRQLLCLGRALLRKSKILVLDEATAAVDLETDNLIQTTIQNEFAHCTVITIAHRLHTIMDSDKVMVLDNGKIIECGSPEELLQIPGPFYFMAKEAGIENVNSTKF
Chain of MRP3 (O15438 whole entry): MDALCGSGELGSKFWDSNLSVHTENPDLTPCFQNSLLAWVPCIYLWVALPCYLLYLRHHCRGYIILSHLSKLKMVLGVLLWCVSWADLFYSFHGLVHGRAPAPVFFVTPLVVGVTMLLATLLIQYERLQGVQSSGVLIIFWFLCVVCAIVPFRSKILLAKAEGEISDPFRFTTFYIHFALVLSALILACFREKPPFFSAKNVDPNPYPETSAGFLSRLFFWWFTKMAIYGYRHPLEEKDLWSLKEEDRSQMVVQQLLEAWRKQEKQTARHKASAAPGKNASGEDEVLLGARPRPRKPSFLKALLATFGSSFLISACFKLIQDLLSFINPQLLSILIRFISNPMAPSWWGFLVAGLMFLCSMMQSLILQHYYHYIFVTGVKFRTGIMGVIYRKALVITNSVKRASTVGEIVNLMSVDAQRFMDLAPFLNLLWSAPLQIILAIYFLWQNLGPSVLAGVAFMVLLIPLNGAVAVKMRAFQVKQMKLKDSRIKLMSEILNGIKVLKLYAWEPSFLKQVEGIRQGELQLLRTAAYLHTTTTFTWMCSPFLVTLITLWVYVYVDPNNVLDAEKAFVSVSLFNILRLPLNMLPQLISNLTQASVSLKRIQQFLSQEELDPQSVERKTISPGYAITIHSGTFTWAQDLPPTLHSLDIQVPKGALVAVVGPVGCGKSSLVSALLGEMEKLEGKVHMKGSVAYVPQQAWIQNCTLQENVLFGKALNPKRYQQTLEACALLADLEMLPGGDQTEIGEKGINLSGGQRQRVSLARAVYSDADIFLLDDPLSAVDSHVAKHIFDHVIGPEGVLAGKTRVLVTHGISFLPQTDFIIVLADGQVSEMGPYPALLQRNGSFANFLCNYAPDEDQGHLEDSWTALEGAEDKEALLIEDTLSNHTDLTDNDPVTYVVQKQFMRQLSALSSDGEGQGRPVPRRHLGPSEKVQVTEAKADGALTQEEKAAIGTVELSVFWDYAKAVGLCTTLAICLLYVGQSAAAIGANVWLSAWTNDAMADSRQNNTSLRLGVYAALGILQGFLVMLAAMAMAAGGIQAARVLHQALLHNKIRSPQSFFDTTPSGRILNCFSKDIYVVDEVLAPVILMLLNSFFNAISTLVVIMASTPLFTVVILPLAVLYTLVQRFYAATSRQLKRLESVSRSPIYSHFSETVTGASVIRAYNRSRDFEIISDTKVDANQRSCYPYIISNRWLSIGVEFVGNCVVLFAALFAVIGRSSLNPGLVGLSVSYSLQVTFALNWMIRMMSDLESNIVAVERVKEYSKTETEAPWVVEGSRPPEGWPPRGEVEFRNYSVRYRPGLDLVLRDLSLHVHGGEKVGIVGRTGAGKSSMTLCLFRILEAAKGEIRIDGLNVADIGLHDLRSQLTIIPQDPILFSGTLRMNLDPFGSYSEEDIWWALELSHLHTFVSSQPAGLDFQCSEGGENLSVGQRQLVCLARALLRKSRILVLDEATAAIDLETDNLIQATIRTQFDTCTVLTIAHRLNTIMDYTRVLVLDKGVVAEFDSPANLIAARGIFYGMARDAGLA

The EC50 is the midpoint of the concentration-response curve. By IC50 is commonly meant the concentration at which inhibition is half-maximal. In general, CC50 refers to the concentration that lowers cell viability or growth by half. High values mean lower toxicity to the cells, low ones greater toxicity to the cells. Regarding `CC(=O)CC[C@H]1C(=O)N[C@@H](C(C)C)C(=O)N[C@@H](Cc2cc(O)cc(F)c2)C(=O)N2CCCC(N2)C(=O)O[C@H](/C(C)=C/C=C/C(=O)N2CCCCO2)C/C=C/C=C/[C@H](O)[C@H](C)[C@H]1O` (stereo partly drawn) [Compound 24], the clearance in data set [1] is 0.017 L/h/kg. The AUC(0-t) in data set [1] (po 5 mg/kg) was found to be 8.22 µg·h/mL. In addition, the figures for the EC50 in [2] and in [7] were 0.13 µM and 0.033 µM, respectively. Also, the IC50 is 4.3 µM in data set [3]; 12.3 µM in data set [4]; more than 50 µM in [5]; 1.8 µM in [8]; 0.00031 µM in data set [9]; more than 50 µM in data set [10]. Besides, in data set [11], the IC50 was more than 50 µM. The compound further showed a CC50 at 72 h in [6] of more than 100 µM. Besides, in [7], the “Selectivity index (CC50/EC50)” value was more than 3030.

On to `C/C=C/C[C@@H](C)[C@@H](O)[C@H]1C(=O)N[C@@H](CC)C(=O)N(C)[C@H](C)C(=O)N(CC)[C@@H](C(C)C)C(=O)N[C@@H](C(C)C)C(=O)N(C)[C@@H](CC(C)C)C(=O)N[C@@H](C)C(=O)N[C@H](C)C(=O)N(C)[C@@H](CC(C)C)C(=O)N(C)[C@@H](CC(C)C)C(=O)N(C)[C@@H](C(C)C)C(=O)N1C` [DEBIO-025, 2, DEBIO-025], for which the IC50 in data set [12] is 4.1 µM; in [3] it was 0.45 µM; in data set [4], 0.18 µM; in data set [5], more than 50 µM; in [8], 0.19 µM; in data set [9] (read-out: CypA PPIase IC50, recombinant CypA), 0.0008 µM. Moreover, the IC50 was determined as 16 µM in data set [10] and 0.72 µM in data set [11]. Also, the EC50 in data set [2] is 1.5 µM; in data set [7], 0.096 µM. Also, half-maximal cytotoxicity in [13] (CC50) was put at 11.2 µM. The “Selectivity index (CC50/EC50)” value in [7] is 111.

Consider `Nc1nc(=O)n([C@@H]2CS[C@H](CO)O2)cc1F` [Emtricitabine], for which the EC50 in data set [2] was 0.4 µM.

For `CC(=O)CC[C@H]1C(=O)N[C@@H](C(C)C)C(=O)N[C@@H](Cc2cccc(O)c2)C(=O)N2CCC[C@H](N2)C(=O)O[C@H](/C(C)=C/CO)C/C=C/C=C/[C@H](O)[C@H](C)[C@H]1O` [Hydroxymacrocycle, 6], in data set [6], the CC50 at 72 h is 83.6 µM. Further, in [7], the EC50 worked out at 8.4 µM and the “Selectivity index (CC50/EC50)” value is recorded as 9.9.

With `CC[C@H]1C[C@H](C)[C@@]2(NC1=O)O[C@@H](C[C@H](O)[C@@H](C)CC/C=C/C=C(\C)[C@@H]1C/C=C/C=C/[C@H](O)[C@H](C)[C@@H](O)[C@@H](CCC(C)=O)C(=O)N[C@@H](C(C)C)C(=O)N[C@@H](Cc3cccc(O)c3)C(=O)N3CCC[C@H](N3)C(=O)O1)[C@H](C)[C@H](O)[C@@H]2C` [Sanglifehrin A, 5, Sanglifehrin A], the clearance in [1] is 0.054 L/h/kg. In data set [1] (po 10 mg/kg), the AUC(0-t) worked out at 2.33 µg·h/mL. The same compound gave a CC50 at 72 h in data set [6] of 9.1 µM. The EC50 in data set [7] is 0.318 µM.
